Measured values as given in patent US20060128660A1, “FK228 analogs and methods of making and using the same” (Wisconsin Alumni Research Foundation, priority 2004, published 2006).

Legend:
HDAC = assay: Western blot analysis of histones (tetra-AcLys H4) isolated from treated Drosophila S2 cells; format: cell-based
Procedure: Drosophila S2 cells can be cultured in Schneider's medium and grown as previously described by Wade and co-workers for periods ranging from 12 h to 96 h (Ballestar et al., 2001, Eur. J. Biochem. 268: 5397-5406). Cells may then be lysed and nuclear extracts prepared according to Thompson and co-workers (Steffan, 2001, Nature 413: 739-743). Lysates are then be subjected to differing concentrations of HDAC inhibitors and/or reductants (Barlow et al., 2001, Exp. Cell Res. 265: 90-103).
H2B detection was used to ensure equivalent protein loading to each well. […] Cells in all reactions were incubated at ambient temperature in media that contained 20 μM of each respective synthetic agent. Incubations were conducted for either 48 or 72 hours prior to nuclei isolation and processing.
H2B detection was used to ensure equivalent protein loading to each well. […] Lane 1 is a dioxane solvent control and concentrations of “drug” in cell medium are indicated above each lane. All cells were treated for a period of 48 hours at ambient temperature prior to nuclei isolation and processing.
Briefly, 2×10^6 cells in 10 mL medium are brought to 2×10^−5 M in synthetic intermediate and then allowed to incubate at ambient temperature for specified times. […] Histone H2B was detected in each case in order to verify equal protein loadings for each lane.

Trx = conditions: human primary breast and colon tumor tissues, Butler et al. 2002; cited from earlier work

Structure (SMILES) | acetylated H4 in histones isolated from treated cells (Western blot) (HDAC; 20 μM, 48 or 72 hours, ambient temperature (FIG. 3A)) | cellular HDAC inhibition (Western blot data) (HDAC; at −20 μM concentration) | effect on Trx (Trx)
O=C(CCCCCS)NC(CO)CSCc1ccccc1 (stereo not drawn) [compound 33] | a significant amount of acetylated H4 | potent cellular HDAC inhibitors | –
O=C(CCCCCCC(=O)Nc1ccccc1)NO [SAHA] | – | – | down regulates Trx
